experiment: Human HepG2 cell viability assay in 384 well format; type: toxicity, cell-based; set-up: dose 125 nL, time 70.5 hour; cytotoxicity at 70.5 h: concentration not given beside the values; settings: HepG2 cells, read-out: Inhibition

Compound	cytotoxicity at 70.5 h [%]
Cc1ccoc1C(=O)NC1CCN(Cc2ccccc2F)CC1	27.3
Cc1nn(C)c2cnn(CC(=O)NCc3cccs3)c12	-8.64
CC[C@H]1CN2CC[C@H]1C[C@@H]2CNCc1ccc(OC)cc1	-3.31
CN1CCN(c2nc(-c3cnn(C)c3)cs2)CC1	-6.42
COc1cc(CNC(C)Cn2cccn2)cc2c1OCCO2 (stereo unspecified)	-4.44
O=C(NCCc1c[nH]cn1)C1CCCN(Cc2ccco2)C1 (stereo unspecified)	-1.6
Cc1cc(NCCCC(F)(F)F)n2nc(C)cc2n1	-1.87
Cc1nonc1CC(=O)N1C[C@@H]2CC[C@H](C1)N(Cc1ccccc1)C2=O	8.97
COCCN1CCCC(CN(C)c2nc3c(s2)c(C)nn3C)C1 (stereo unspecified)	-4.58
CC(C)CN1CCC2(C=C(C(=O)N3CCCC3)c3ccccc32)CC1	-15.8
CN1C(=O)C(C)(C)COc2ccc(NS(=O)(=O)Cc3ccccc3)cc21	5.22
CN(CC(=O)N1CCC(OCc2cccnc2)CC1)c1ccccc1	-17.1
Cc1sc(NC(=O)CN(C)CCOc2cccc(F)c2)c(C)c1C	-2.66
Cc1ccc(C(=O)N2CCc3ccc(=O)n(CCN(C)C)c3CC2)o1	-4.04
CC1CCCCN1C(=O)c1ccc(=O)[nH]n1 (stereo unspecified)	-5.98
c1coc(-c2nnc([C@H]3CCN(Cc4ccc5c(c4)OCO5)C3)o2)c1	-6.68
Cc1cc(C(=O)N2CC[C@H]3[C@@H]2CCC(=O)N3c2ccccc2)no1	-8.05
CCN(CC)CCn1cc(NC2CCN(C(C)(C)C)CC2)cn1	5.68
Cc1c(C(=O)N2CCC3(CCCN(CC4CC4)C3=O)C2)ccn1C (stereo unspecified)	15.8
CC1CCC2(CC1)NC(=O)c1cc(Br)ccc1-n1nnnc12 (stereo unspecified)	-4.82
CCc1nccn1C1CCCN(C(=O)c2cn3cccnc3n2)C1 (stereo unspecified)	-11.4
Cc1cc(CN(C)C(=O)C(c2ccccc2C)N(C)C)on1 (stereo unspecified)	-6.35
Cn1cc(CN2C[C@H]3CN(c4cncnc4)C(=O)[C@H]3C2)cn1	-2.54

Compound	cytotoxicity at 70.5 h [%]
Cc1cccc(CN2CCC3(CCCN(CC(=O)N(C)C)C3)C2)n1 (stereo unspecified)	7.75
CC(c1ncc(-c2ccccc2)o1)N1CCN(C(=O)N(C)C)CC1 (stereo unspecified)	-2.55
Cc1nn(C)cc1C(C)Nc1ncc(C(N)=O)cc1Cl (stereo unspecified)	-5.7
Cc1cn[nH]c1C1COCCN1S(=O)(=O)c1cn[nH]c1 (stereo unspecified)	-0.517
Cc1cccc(N2CCN(c3ccn4c(=O)[nH]nc4n3)CC2)c1C	3.43
Cc1cccc(S(=O)(=O)NC2CCN(CC(F)(F)F)C2)c1 (stereo unspecified)	-15.5
CCOC(=O)c1nc(CN2CCN(C(=O)NC3CCCCC3)CC2)cs1	-7.73
CN1C(Cn2cccn2)C[C@@H]2CN(Cc3ccccn3)CC[C@@H]21 (stereo partly specified)	-10.5
COc1ncccc1C(=O)N1CCC(c2nnc(C3CC3)o2)CC1	4.57
COc1ccc2c(c1)C(C(=O)N(C)CCc1cnn(C)c1)CC(=O)N2 (stereo unspecified)	-8.46
CS(=O)(=O)NC1CCN(C(=O)NCc2cc[nH]n2)CC1	-8.42
CO[C@@H]1CN(c2ccccc2)S(=O)(=O)[C@@]12CCN(CC1CC1)C2	-6.15
NC(=O)C1CN(C(=O)NCC2(c3ccc(F)cc3)CCC2)CCO1 (stereo unspecified)	1.35
CC(=O)N1CCN(C(=O)c2ccc(-c3cccc(C)c3)[nH]c2=O)CC1	-2.2
Cc1cnc(N2CCCn3c(nnc3Cn3cccn3)C2)nc1	10.6
Cc1ccc(C)c(C(C)NC(=O)N2CCC(n3cncn3)CC2)c1 (stereo unspecified)	-3.74
COCCN1CCC(CNC(=O)Nc2ccc(SC(F)(F)F)cc2)C1 (stereo unspecified)	-1.27
Cc1nnc(CN2CCN(C)C3(CCC(=O)N(CCO)CC3)C2)s1 (stereo unspecified)	3.3
Cc1ncc(CN2CCC(c3nc4cc(Cl)ccc4o3)CC2)s1	22.3
CC(C)(C)CCS(=O)(=O)NCCc1csc(N2CCCC2)n1	-2.83
COC(=O)c1ccc(N2CCN(C(=O)c3ccc(=O)n(C)c3)CC2)cc1	-5.8
Cn1cc(CN2CCC(F)(F)C3(CCN(c4ncc(F)cn4)C3)C2)cn1 (stereo unspecified)	-13.8
O=C(CCc1nccs1)N1CCC(N2CCNC2=O)CC1	-3.7

Compound	cytotoxicity at 70.5 h [%]
Cc1cnn(C2CN(Cc3noc(-c4ccccc4)n3)C2)c1	-7.62
O=C(Nc1ccc2c(c1)C(=O)NC2=O)c1ccc(Cl)s1	-10.9
CNc1ncccc1CN1CCCCC1c1cc(C)n2ccnc2n1 (stereo unspecified)	-5.95
c1cnc(-c2nc(CN3CCCC(Cn4cncn4)C3)cs2)nc1 (stereo unspecified)	-11
CN1CCN(C(=O)CCCc2ccccc2)CC(O)(Cn2cccn2)C1 (stereo unspecified)	-2.15
Cc1nc(CN2CCCC(CCc3ccc(F)cc3F)C2)c[nH]1 (stereo unspecified)	-1.86
CCc1ocnc1C(=O)Nc1ccc2ccn(CCN(C)C)c2c1	-13.2
c1coc(-c2nnc(CN3CCCC(CN4CCCCCC4)C3)o2)c1 (stereo unspecified)	-1.85
NC(=O)NC(CC(=O)NCCc1cccc(F)c1)c1ccccc1 (stereo unspecified)	-6.09
Cc1cc(C(=O)N2CCN(c3nc4c(C(C)C)cccc4s3)CC2)no1	3.44
Cc1csc(NC(=O)CN2CCc3c(nc(C4CC4)n3C)C2)n1	-1.68
COCCn1cc(NCc2c[nH]nc2C(C)(C)C)cn1	-4.3
CSCC[C@H](NC(C)=O)c1nc(CC(C)C)n[nH]1	7.09
CC1(C)CN(Cc2nnc(-c3cccnc3)o2)CC[C@]1(C)O	8.67
CN(C)S(=O)(=O)N1CCC(OCCCc2ccccc2)C1 (stereo unspecified)	-0.922
COc1cccc(N2CCC(N3CCOC(C(F)(F)F)C3)CC2)c1 (stereo unspecified)	-18.1
CC(=O)N1CCCCC[C@@H]2[C@@H]1[C@H](c1cccc(F)c1)CN2C(C)=O	-10.6
O=C(NCc1cc[nH]n1)NCC(c1ccco1)N1CCCC1 (stereo unspecified)	-13.5
Cc1nc(N2CCCC2)ncc1C(=O)Nc1ccc(Br)cc1	-2.71
Cc1nsc(NC(=O)NC2CCOCC2)n1	13.1
COc1ccc(NC(C)=O)cc1OCc1cccnc1	29.5
Cc1ccc(CN2CCC3(CCN(Cc4ccncc4)CC3)CC2)cc1	-3.02
Cn1ccnc1CNc1nccc(-c2ncnn2C)n1	-14.8

Compound	cytotoxicity at 70.5 h [%]
NC(=O)c1cc(NC(=O)NCCc2cc(F)cc(F)c2)ccc1F	10.2
COc1ncccc1CN1C[C@@H]2COC[C@]2(COc2cccnc2)C1	-13.7
Cc1ccccc1C(NC(=O)Cn1cc(C2CC2)nn1)C1CC1 (stereo unspecified)	-3.63
Cc1ccc(C(=O)N2C[C@@H]3CN(S(C)(=O)=O)CCO[C@@H]3C2)s1	0.775
Cc1ccccc1OC1CCN(CC(=O)Nc2cn(C)nc2C)CC1	-1.78
O=C1CC(N(C(=O)c2csc(-c3ccccc3)n2)C2CC2)C(=O)N1 (stereo unspecified)	10.8
O=C(NC[C@H]1OC[C@@H](NCc2cccs2)[C@@H]1O)N1CCOCC1	8.48
CCCn1c(C)cc(C(=O)CN2C(=O)c3ccccc3CS2(=O)=O)c1C	-10.8
COc1cccc(CC(C)NC(=O)NCc2ccn(C)c2)c1 (stereo unspecified)	0.709
Cc1n[nH]c(C)c1CCC(=O)NCC1CCCN(C2CCCC2)C1 (stereo unspecified)	30.3
CCOCC1CN(C(=O)Cc2ccccn2)Cc2cn(C)nc21 (stereo unspecified)	-10.7
OC(CNCc1nnc2ccccn12)c1ccc2c(c1)OCCCO2 (stereo unspecified)	-8.23
Cc1nccn1-c1ccc(C(C)NCc2cccn2C)cc1 (stereo unspecified)	-4.2
Cc1nonc1OCCNC(=O)COc1ccc(Cl)cc1Cl	-13.9
CCN1CCN(C(=O)Cc2ccc(S(=O)(=O)C(F)F)cc2)CC1	5.94
COc1ccccc1C1(C(=O)N2CCN(CC(C)O)CC2)CC1 (stereo unspecified)	-0.267
COCCNC(=O)c1ccoc1CN1c2ccccc2CC1C (stereo unspecified)	-6.26
CCS(=O)(=O)N1Cc2cncn2CC(C(=O)NCC2CC2)C1 (stereo unspecified)	1.86
CC(c1cn2ncsc2n1)N1Cc2ncccc2C1=O (stereo unspecified)	-10.3
Clc1cccc(CNc2cnn(CCN3CCCCC3)c2)c1	-11.9
CNc1nccnc1C1CN(Cc2ccc(OCC(=O)O)cc2)CCO1 (stereo unspecified)	-5.37
Cc1cccc(CO[C@@H]2C[C@H]3CN(C(=O)c4cnccn4)CCN3C2)n1	-8.15
CCN1CCn2c(C)cnc2C12CCN(C(=O)Cc1ccccc1)CC2	24.6

Compound	cytotoxicity at 70.5 h [%]
COC(=O)c1ccc(C(=O)NCc2ccco2)nc1	-8.73
Cc1noc(C(C)C)c1C(=O)NCc1cccc(CN(C)C)c1	-1.69
CCN(CC)CCN(C)Cc1cn(C)nc1-c1ccc2c(c1)OCCO2	23.5
Cc1cc(C(=O)N2CCC3(CCCN(CC4CC4)C3=O)C2)c(C)n1C (stereo unspecified)	-2.9
CC(C)CCN1CCC2(CNS(=O)(=O)c3cccnc3O2)C1 (stereo unspecified)	26.8
Cc1ccc(N2C[C@H]3CCC[C@@]3(COc3cccnc3)C2)nn1	-8.26
CC[C@H]1N(CC2CCC2)CCC[C@]12CCC(=O)N2Cc1ccncc1	-5.93
CC(=O)NCC(=O)N1CCc2c(CN(C)C)nn(C(C)C)c2C1	-2.84
Cc1csc2c(N3CCC(NCCCc4ccncc4)CC3)ncnc12	-7.45
Cc1nc2n(n1)CC(NCc1nc(-c3cccnc3)no1)CC2 (stereo unspecified)	-7.76
COc1ccc(C(=O)N2C[C@@H](c3ccccc3)[C@@H]3NCCCC[C@@H]32)cc1	-8.54
Cn1ncc2c(N3CCCC(C)(O)C3)nc(-c3cccnc3)nc21 (stereo unspecified)	9.87
O=C(c1ccc(O)nc1)N1CCN(C(=O)c2ccc(F)cc2F)CC1	-7.11
CC1CCc2nc(O)c(C(=O)NCc3ccccc3F)cc2C1 (stereo unspecified)	7.1
CCn1cnnc1C1CCN(C(=O)Cc2ccc(OC)c(F)c2)CC1	-7.22
CC(NC(=O)CCc1nc(-c2nnc[nH]2)no1)c1ccc(F)cc1F (stereo unspecified)	4.47
Cc1ccc(C(=O)N2C[C@@H]3OCCN(CCN4CCCC4)[C@@H]3C2)cn1	-4.09
CC(C)N(CCNC(=O)c1n[nH]c2ccccc12)C(C)C	-7.32
CN(Cc1csc(-c2ccccc2)n1)Cc1ncccc1C(=O)O	11.5
